This experiment has as its system ADT-perturbed human prostate cancer vasculature. Put plainly: In vivo selection of Ph.D.-12 phage display library against ADT-perturbed human prostate cancer xenografts, NextGen sequencing of recovered phage. To be noted: for Recovery of Candidate Peptides Percent of Total Phage After 3 Cycles of Selection: xenograft in SCID mouse, 72 h after ADT; for # clones recovered: third round of in vivo selection, data of the two tumor specimens combined. How it is done: Male SCID mice were castrated and pre-implanted with silastic tubing to provide sustained-release of testosterone to maintain human serum levels testosterone in the host mouse and to facilitate castration/androgen deprivation (ADT). Human prostate tumor tissue was prepared for transplantation by cutting the radical prostatectomy surgical remnant in ViaSpan into approximately 1.0 mm^3 to 2.0 mm^3 wedges. Tissue was transplanted, into individual incisions in the skin; four pieces of tissue were transplanted on each flank of mice anesthetized with isoflurane. Each piece of tumor tissue was dipped into Matrigel, inserted into an incision, and the incisions closed with tissue glue.
Anastamosis of the human vasculature of the prostate cancer xenografts to the host mouse vascular system occurred between Days 5 and 6 after tissue transplantation, and the vasculature had stabilized by Day 21 after transplantation.
Seventy-two hours after initiation of ADT, the host mouse was anesthetized with acepromazine/ketamine/xylazine and the peptide-phage display library introduced systemically by intra-cardiac injection into the right ventricle. The Ph.D.-12 phage library (NEB, Ipswich, Mass.) was injected at a concentration of 1.2×10^11 pfu in 100 μL. The phage library was allowed to circulate through the mouse host for 15 minutes. At the conclusion of the incubation the vascular volume was replaced by perfusion (40 ml) with PBS to remove unbound phage. […] The xenografts were excised and placed into an eppendorf tube containing 0.5 mL phage elution buffer (0.2 M Glycine-HCl pH 2.2, 0.5% BSA) and the xenografts homogenized with a rotor/stator homogenizer on ice. The phage containing homogenate was cleared by centrifugation at 20,800×G for 5 minutes, and neutralization buffer (Tris-HCl pH 9.1) added to the supernatant. The concentration of phage in the eluate was established by titration: serial 10-fold dilutions of the neutralized phage eluate (10 μl) were added to 200 μL of a mid-log culture of host bacteria (ER2738), the cells/phage mixed with 3.5 mL of molten top agar (48° C.), and plated onto LB. Plates were incubated at 37° C. overnight and blue plaques were counted for determination of pfu. Based on the pfu, an aliquot of the neutralized phage eluate that contained a standardized number of phage was amplified by addition to a 20 mL flask of LB/Tet inoculated with 200 μL of an overnight culture of ER2738, and the culture incubated for 4 hours. The culture was cleared of bacteria by centrifugation, the supernatant treated with ⅙ volume of PEG/NaCl (20% (w/v) PEG-8000, 2.5M NaCl), refrigerated overnight for phage precipitation, and phage recovered by centrifugation. The final phage pellet was resuspended in […] of TBS and titered (as described above). For all in vivo selections the input phage held constant at 1.2×10^11 phage per mouse.
Following the third sequential round of in vivo selection against tissue from a single patient, the recovered phage population was titered, diluted and plated at a concentration to yield approximately 100 plaques per plate. Individual plaques were picked and amplified for conventional DNA sequencing to verify that a diversity of peptides was selected. Subsequently, the region of the phage genome that contained the random peptides embedded in the pIII protein were amplified by PCR from all selected phage libraries in preparation for Next Gen Sequencing. PCR primers were designed that flanked the hyper-variable region of the phage genome, the region containing the peptide inserted into the pIII protein: (FWD:—3gIII: 5′-CCTTTCTATTCTCACTCTGCT-3′ (SEQ ID NO:98); REV:—155gIII: 5′-CCGTAACACTGAGTTTCGTCA-3′ (SEQ ID NO:99)). The amplified segments were the templates for the NextGen DNA sequencing process. Templates were quantified and concentrations normalized and underwent 454 Next Gen sequencing using 500 ng of amplified template DNA at a concentration of […]. […]

With AETVESCLAKSH, the “Recovery of Candidate Peptides Percent of Total Phage After 3 Cycles of Selection” value reads like this: (CaP Tissue Specimen 1) 0.99%; (CaP Tissue Specimen 2) 0.5%.

As for DPKFPQNSHLIT, the “Recovery of Candidate Peptides Percent of Total Phage After 3 Cycles of Selection” value (CaP Tissue Specimen 1) is on record as 0.63% and the “Recovery of Candidate Peptides Percent of Total Phage After 3 Cycles of Selection” value (CaP Tissue Specimen 2) was found to be 0.35%.

DQHGFMHIFDL: the “Recovery of Candidate Peptides Percent of Total Phage After 3 Cycles of Selection” value runs as follows: (CaP Tissue Specimen 1) 0.4%; (CaP Tissue Specimen 2) 0.1%.

Consider GAMHLPWHMGT, for which the “Recovery of Candidate Peptides Percent of Total Phage After 3 Cycles of Selection” value worked out at 0.21% (CaP Tissue Specimen 1) and 46.3% (CaP Tissue Specimen 2).

As to GAMHLPWHMGTL, for the setting “in words”, the recovery entry is recorded as “high recovery”.

HSAQPVKSKAWL: the “Recovery of Candidate Peptides Percent of Total Phage After 3 Cycles of Selection” value was 0.3% (CaP Tissue Specimen 1) and 0.2% (CaP Tissue Specimen 2).

Regarding KPPQNTSAPLSS, the “# clones recovered” value was 3.

Take KPPQNTSAPY: the “# clones recovered” value stood at 2.

For KPPQNTSAPYLP, the “# clones recovered” value came out at 659.

As for KPPQNTSAPYLR, the “# clones recovered” value was determined as 2.

In the case of KPPQNTSCAFIF, the “# clones recovered” value is 2.

On to KPPQTNTSAPYLP, for which the “Recovery of Candidate Peptides Percent of Total Phage After 3 Cycles of Selection” value reads like this: (CaP Tissue Specimen 1) 27.3%; (CaP Tissue Specimen 2) 5.48%.

Take LLADTTHHRWT: the “Recovery of Candidate Peptides Percent of Total Phage After 3 Cycles of Selection” value amounted to 0.1% (CaP Tissue Specimen 1) and 0.1% (CaP Tissue Specimen 2).

Consider SPHWQPNAI, for which the “Recovery of Candidate Peptides Percent of Total Phage After 3 Cycles of Selection” value is on record as 3.29% (CaP Tissue Specimen 1) and 1.53% (CaP Tissue Specimen 2).

Turning to SPHWQPNAIFVN, the “# clones recovered” value is 36.

Regarding SPHWQPNAIL, the “# clones recovered” value was 2.

For SPHWQPNAILL, the “# clones recovered” value amounted to 2.

Turning to SPHWQPNAILLM, the “# clones recovered” value stood at 17.

On to TLQRIHFPPAFS, for which the “# clones recovered” value was 5.

Turning to TLQRTHFPLAFS, the “# clones recovered” value is 3.

For TLQRTHFPPA, the “# clones recovered” value stood at 30.

For TLQRTHFPPAAG, the “# clones recovered” value is 3.

In the case of TLQRTHFPPAFF, the “# clones recovered” value was found to be 22.

Turning to TLQRTHFPPAFP, the “# clones recovered” value was found to be 3.

Take TLQRTHFPPAFR: the “# clones recovered” value worked out at 126.

With TLQRTHFPPAFS, the “# clones recovered” value turned out to be 7988. Further, the “Recovery of Candidate Peptides Percent of Total Phage After 3 Cycles of Selection” value (CaP Tissue Specimen 1) turned out to be 9.58%. Moreover, for the setting “CaP Tissue Specimen 2”, the “Recovery of Candidate Peptides Percent of Total Phage After 3 Cycles of Selection” value stood at 7.57%.

For the sequence TLQRTHFPPAFW, the “# clones recovered” value amounted to 3.

Take TLQRTHFPPARR: the “# clones recovered” value came to 3.

Consider TLQRTHFPPGVF, for which the “# clones recovered” value is given as 5.

For TLQRTHFPPVVF, the “# clones recovered” value amounted to 19.

TLQRTHFPPVVS: the “# clones recovered” value is recorded as 8.

As for TLQRTHFPRLFG, the “# clones recovered” value worked out at 3.

TLQRTHFPRRFG: the “# clones recovered” value was 3.

As for TLQRTHFPRRFR, the “# clones recovered” value turned out to be 6.

On to TLQRTHFPSA, for which the “# clones recovered” value was determined as 6.

With TLQRTHFPSG, the “# clones recovered” value turned out to be 47.

As for TLQRTHFPSGV, the “# clones recovered” value is listed as 19.

Take TLQRTHFPSGVF: the “# clones recovered” value is reported as 32.

As to TLQRTHFPSGVS, the “# clones recovered” value is 14.

On to TLQRTHFRPAF, for which the “# clones recovered” value was found to be 6.

TLQRTHFRPAFR: the “# clones recovered” value is 21.

For the sequence TLQRTHFRRRF, the “# clones recovered” value was determined as 5.

In the case of TLQRTHFRRRFG, the “# clones recovered” value was 95.

TLQRTHFSAGVF: the “# clones recovered” value is 116.

Regarding TLQRTHFSPAFS, the “# clones recovered” value is reported as 4.

Take TLQRTHFSVR: the “# clones recovered” value stood at 4.

In the case of TLQRTLFPPVVS, the “# clones recovered” value is 14.

For the sequence TLQRTLFSAGRF, the “# clones recovered” value is recorded as 32.

For TLQRTLFSAGVF, the “# clones recovered” value was determined as 9.

As for TMGFTAPRFP, the “# clones recovered” value was 9.

As for TMGFTAPRFPAL, the “# clones recovered” value stood at 2.

With TMGFTAPRFPHC, the “# clones recovered” value was found to be 2.

With TMGFTAPRFPHH, the “# clones recovered” value worked out at 3.

On to TMGFTAPRFPHL, for which the “# clones recovered” value amounted to 4.

TMGFTAPRFPHM: the “# clones recovered” value stood at 2.

Consider TMGFTAPRFPHQ, for which the “# clones recovered” value is listed as 8.

In the case of TMGFTAPRFPHR, the “# clones recovered” value worked out at 4.

In the case of TMGFTAPRFPHY, the “Recovery of Candidate Peptides Percent of Total Phage After 3 Cycles of Selection” value was found to be 26.5% (CaP Tissue Specimen 1) and 4.78% (CaP Tissue Specimen 2).

For the sequence TMGFTAPRFPLL, the “# clones recovered” value was 6.

In the case of TMGFTAPRFPSV, the “# clones recovered” value worked out at 2.

Consider TMGFTAPRFQHY, for which the “# clones recovered” value came to 2.

Take TMGFTAPRFRIM: the “# clones recovered” value is reported as 5.

With TMGFTAPRRGAV, the “# clones recovered” value is listed as 2.

Take TMGFTAPWFPHY: the “# clones recovered” value came out at 2.

Consider TMGLTHSRVRIE, for which the “# clones recovered” value came out at 2.

As for TXGFTAPRFPHY, the “# clones recovered” value is 47.

The values above are taken from US10344052B2, “Targeting peptides and uses thereof” (Health Research, Inc., priority 2013, dated 2019).
